From patent US20060166866A1, “Cell adhesion inhibitors” (Biogen, Inc., a Massachusetts corporation, priority 1995, published 2006)

biological target: T1, VLA4 (Homo sapiens, UniProt P05556+P13612); assay: Inhibition of VLA4-dependent adhesion to BSA-CS1 (fluorescently labelled Ramos cells); type: cell-based; conditions: binding of BCECF-labelled Ramos cells to CS1 peptide-coated wells, 2 mM MnCl2, 30 minutes at room temperature
T1 construct: endogenous in cells; host or cells: Ramos cells
Source text: For example, the cell adhesion inhibitory activity of these compounds may be measured by determining the concentration of inhibitor required to block the binding of VLA-4-expressing cells to fibronectin- or CS1-coated plates. In this assay microtiter wells are coated with either fibronectin (containing the CS-1 sequence) or CS-1. If CS-1 is used, it must be conjugated to a carrier protein, such as bovine serum albumin, in order to bind to the wells. Once the wells are coated, varying concentrations of the test compound are then added together with appropriately labelled, VLA-4-expressing cells. Alternatively, the test compound may be added first and allowed to incubate with the coated wells prior to the addition of the cells. The cells are allowed to incubate in the wells format least 30 minutes. Following incubation, the wells are emptied and washed. Inhibition of binding is measured by quantitating the fluorescence or radioactivity bound to the plate for each of the various concentrations of test compound, as well as for controls containing no test compound.
VLA-4-expressing cells that may be utilized in this assay include Ramos cells, Jurkat cells, A375 melanoma cells, as well as human peripheral blood lymophocytes (PBLs). The cells used in this assay may be fluorescently or radioactively labelled.
This assay was used to assess the potency of VLA4-directed inhibitory compounds of this invention.
1. Conjugation of CS1 to BSA
We dissolved BSA-SMCC (Pierce Chemical, Rockford, Ill.; Catalog,# 77115) in H2O at a concentration of 10 mg/mL. [SEQ ID NO:4]:Cys-Tyr-Asp-Glu-Leu-Pro-Gln-Leu-Val-Thr-Leu-Pro-His-Pro-Asn-Leu-His-GIy-Pro-Glu-Ile-Leu-Asp-Val-Pro-Ser-Thr (“Cys-Tyr-CS1 peptide”), which we synthesized by conventional solid phase chemistry and purified by HPLC, was dissolved in 10 mM HEPES pH 5, 50 mM NaCl and 0.1 mM EDTA also at a concentration of 10 mg/mL. We then mixed 500 μL of BSA-SMCC, 250 μL of Cys-Tyr-CS1 peptide and 75 μL of […] and allowed the conjugation reaction to proceed for 30 minutes. We stopped the reaction by adding 1 μL of beta-mercaptoethanol. Samples were analyzed for cross-linking by SDS-PAGE. This reaction produced multiple molecules of the Cys-Tyr-CS1 peptide conjugate to each BSA molecule.
2. Preparation of Plates for Adhesion Assay
We coated the wells of a Linbro titertek polystyrene 96-well flat bottom plate (Flow Laboratories, Maclean, Va.; catalog #76-231-05) with 100 μL of the above-described BSA-CS1 solution diluted to 1 μg/mL in 0.05 M NaHCO3 (15 mM NaHCO3, 35 mM Na2CO3) pH 9.2. Some wells were not coated with CS1 in order to assess non-specific cell binding (NSB). The plate was then incubated overnight at 4° C.
Following this incubation, the contents of the wells were removed by inverting and blotting the plate. All of the wells were then blocked with 100 μL of 1% BSA in PBS, 0.02% NaN3, for a minimum of one hour at room temperature.
3. Preparation of Fluorescently Labelled Ramos Cells
Ramos cells are grown, maintained and labelled in RPMI 1640 culture medium containing 1% BSA. Just prior to running the assay, we added 2′,7′-bis-(2-carboxyethyl)-5 (and -6) carboxyfluorescein acetoxymethyl ester (“BCECF-AM”; Molecular Probes Inc., Eugene, Oreg.; catalog #B-1150) to a final concnetration of 2 μM to a culture of Ramos cells (4×10^6 cells/mL). We incubated the cells for 20 minutes at 37° C.
Following labelling, the cells were washed twice in assay buffer (24 mM TRIS, 137 mM NaCl, 2.7 mM KCl, pH 7.4, containing 0.1% BSA and 2 mM glucose) to remove any cations originating from the culture medium. The cells were then resuspended in assay buffer to 4×10^6 cells/mL and 2 mM MnCl2 was added to upregulate VLA4 on the surface of the cells.
Immediately prior to running the assay, we removed the BSA blocking solution from the 96-well plates and washed the wells with 100 μL of assay buffer. We then added to each well 25 μL of test compound at 2× the final concentration and 25 μL of the labelled Ramos cells. […]

T1 sequence (P13612 34-1032): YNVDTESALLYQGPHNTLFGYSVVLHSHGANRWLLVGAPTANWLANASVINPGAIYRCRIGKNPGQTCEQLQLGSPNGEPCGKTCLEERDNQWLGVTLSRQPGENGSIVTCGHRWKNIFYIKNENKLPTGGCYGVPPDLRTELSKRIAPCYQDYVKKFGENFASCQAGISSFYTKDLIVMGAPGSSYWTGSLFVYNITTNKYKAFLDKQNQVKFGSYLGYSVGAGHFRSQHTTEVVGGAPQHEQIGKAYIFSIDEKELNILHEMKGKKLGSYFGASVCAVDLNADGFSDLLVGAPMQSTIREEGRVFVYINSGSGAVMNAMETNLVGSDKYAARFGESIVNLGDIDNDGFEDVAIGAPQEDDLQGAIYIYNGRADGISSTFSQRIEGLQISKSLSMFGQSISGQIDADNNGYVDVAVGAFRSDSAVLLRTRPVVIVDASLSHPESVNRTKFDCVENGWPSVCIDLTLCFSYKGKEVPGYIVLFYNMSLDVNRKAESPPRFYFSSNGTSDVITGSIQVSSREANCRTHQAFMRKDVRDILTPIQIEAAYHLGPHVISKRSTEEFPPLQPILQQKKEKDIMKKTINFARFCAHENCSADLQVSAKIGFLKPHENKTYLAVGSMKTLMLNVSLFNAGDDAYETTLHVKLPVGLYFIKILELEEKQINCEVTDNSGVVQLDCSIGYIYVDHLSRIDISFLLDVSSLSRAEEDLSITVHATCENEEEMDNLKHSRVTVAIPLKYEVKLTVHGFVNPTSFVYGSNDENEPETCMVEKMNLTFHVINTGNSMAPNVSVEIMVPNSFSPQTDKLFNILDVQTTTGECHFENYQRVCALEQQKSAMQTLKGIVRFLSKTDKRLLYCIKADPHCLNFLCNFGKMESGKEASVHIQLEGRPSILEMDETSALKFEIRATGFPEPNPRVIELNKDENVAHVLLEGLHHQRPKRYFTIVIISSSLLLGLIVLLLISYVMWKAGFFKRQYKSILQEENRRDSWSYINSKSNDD
T1 sequence (P05556 21-798): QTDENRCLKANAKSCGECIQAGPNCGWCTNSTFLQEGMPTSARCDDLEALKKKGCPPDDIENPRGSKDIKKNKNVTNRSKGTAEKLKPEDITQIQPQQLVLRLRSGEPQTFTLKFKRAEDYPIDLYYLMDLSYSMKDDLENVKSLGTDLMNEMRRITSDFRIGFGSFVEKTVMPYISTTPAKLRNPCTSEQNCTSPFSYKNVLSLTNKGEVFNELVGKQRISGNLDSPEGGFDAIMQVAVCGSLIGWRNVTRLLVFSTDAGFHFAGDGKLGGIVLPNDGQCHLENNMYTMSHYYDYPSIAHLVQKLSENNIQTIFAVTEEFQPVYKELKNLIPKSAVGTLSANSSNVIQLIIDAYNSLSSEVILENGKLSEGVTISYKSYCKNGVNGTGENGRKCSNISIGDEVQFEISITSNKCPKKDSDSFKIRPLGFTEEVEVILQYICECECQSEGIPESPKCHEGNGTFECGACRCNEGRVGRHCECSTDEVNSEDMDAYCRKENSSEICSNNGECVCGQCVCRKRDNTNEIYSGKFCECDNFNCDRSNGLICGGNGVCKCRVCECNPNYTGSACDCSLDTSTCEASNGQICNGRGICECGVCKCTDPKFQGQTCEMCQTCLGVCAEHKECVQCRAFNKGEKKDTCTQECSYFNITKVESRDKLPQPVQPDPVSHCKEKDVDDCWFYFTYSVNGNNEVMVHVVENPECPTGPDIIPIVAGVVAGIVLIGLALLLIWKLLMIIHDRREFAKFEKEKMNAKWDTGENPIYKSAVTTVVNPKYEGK

IC50	SMILES
< 50 nM	COC(=O)c1ccc(C(CC(=O)O)NC(=O)C(CCSC)NC(=O)Cc2ccc(NC(=O)Nc3ccccc3C)cc2)cc1 (stereo not shown) [BIO-1361]
< 50 nM	COC(=O)c1ccc(C(CC(=O)O)NC(=O)C(CC(C)C)NC(=O)Cc2ccc(NC(=O)Nc3ccccc3)cc2)cc1 (stereo not shown) [BIO-1388]
< 50 nM	CSCCC(NC(=O)Cc1ccc(NC(=O)Nc2ccccn2)cc1)C(=O)NC(CC(=O)O)c1ccc2c(c1)OCO2 (stereo not shown) [BIO-1393]
50 to 10000 nM	CC(C)CC(NC(=O)Cc1ccc(Nc2nc3ccccc3o2)cc1)C(=O)NC(CC(=O)O)c1ccc2c(c1)OCO2 (stereo not shown) [BIO-1396]
< 50 nM	Cc1ccccc1NC(=O)Nc1ccc(CC(=O)NC(CC(C)C)C(=O)NC(CCc2ccccc2)CC(=O)O)cc1 (stereo not shown) [BIO-1400]
50 to 10000 nM	CSCCC(NC(=O)Cc1ccc(NC(=O)Nc2ncccc2C)cc1)C(=O)NC(CC(=O)O)c1ccc2c(c1)OCO2 (stereo not shown) [BIO-1429]
50 to 10000 nM	CC(C)CC(NC(=O)Cc1ccc(NC(=O)c2ccc[nH]2)cc1)C(=O)NC(CC(=O)O)c1ccc2c(c1)OCO2 (stereo not shown) [BIO-1474]
50 to 10000 nM	C=CCNC(=O)Nc1ccc(CC(=O)NC(CC(C)C)C(=O)NC(CC(=O)O)c2ccc3c(c2)OCO3)cc1 (stereo not shown) [BIO-1475]
< 50 nM	C#CC(CC(=O)O)NC(=O)C(CC(C)C)NC(=O)Cc1ccc(NC(=O)Nc2ccccc2C)cc1 (stereo not shown) [BIO-1490]
< 50 nM	C=CCC(CC(=O)O)NC(=O)C(CC(C)C)NC(=O)Cc1ccc(NC(=O)Nc2ccccc2C)cc1 (stereo not shown) [BIO-1515]
50 to 10000 nM	COc1ccc(C(CC(=O)O)NC(=O)C(CC(C)C)NC(=O)Cc2ccc(NC(=O)Nc3ccccc3F)cc2)cc1OC (stereo not shown) [BIO-1525]
50 to 10000 nM	COc1ccc(C(CC(=O)O)NC(=O)C(CC(C)C)NC(=O)Cc2ccc(NC(=O)Nc3ccc(F)cc3)cc2)cc1OC (stereo not shown) [BIO-1526]
< 50 nM	Cc1ccccc1NC(=O)Nc1ccc(CC(=O)NC(CC(C)C)C(=O)NC(C)CC(=O)O)cc1 (stereo not shown) [BIO-1536]
50 to 10000 nM	Cc1ccccc1NC(=O)Nc1ccc(CC(=O)NC(CC(C)C)C(=O)NCCC(=O)O)cc1 (stereo not shown) [BIO-1594]
50 to 10000 nM	CC(C)CC(NC(=O)Cc1ccc(NC(=O)c2cc3ccccc3[nH]2)cc1)C(=O)NCCC(=O)O (stereo not shown) [BIO-1648]
50 to 10000 nM	CC(C)CC(NC(=O)Cc1ccc(NC(=O)c2c[nH]c3ccccc23)cc1)C(=O)NC(CC(=O)O)c1ccc2c(c1)OCO2 (stereo not shown) [BIO-1655]
50 to 10000 nM	Cc1ccccc1NC(=O)Nc1ccc(CC(=O)NC(CC(C)C)C(=O)NC(CC(=O)O)CN2CCOCC2)cc1 (stereo not shown) [BIO-1721]

Further lines, the compound ahead of its results:

SMILES	IC50
Cc1ccc(NC(=O)Nc2ccc(CC(=O)NC(CC(C)C)C(=O)NC(CC(=O)O)c3ccc4c(c3)OCO4)cc2)cc1 (stereo not shown) [BIO-1067]	50 to 10000 nM
CC(C)CC(NC(=O)Cc1ccc(NC(=O)NC(C)(C)C)cc1)C(=O)NC(CC(=O)O)c1ccc2c(c1)OCO2 (stereo not shown) [BIO-1076]	50 to 10000 nM
CC(C)CC(NC(=O)CC(c1ccccc1)c1ccccc1)C(=O)NC(CC(=O)O)c1ccccc1 (stereo not shown) [BIO-1099]	> 10000 nM
CC(C)CC(NC(=O)Nc1ccc([N+](=O)[O-])cc1)C(=O)NC(CC(=O)O)c1ccccc1 (stereo not shown) [BIO-1108]	> 10000 nM
CC(C)CC(NC(=O)Cc1ccc(NC(=O)Nc2ccccc2)cc1)C(=O)NC(CC(=O)O)c1ccc2c(c1)OCO2 (stereo not shown) [BIO-1128]	50 to 10000 nM
O=C(O)CC(NC(=O)C(CSCc1ccccc1)NC(=O)Cc1ccc(NC(=O)Nc2ccccc2)cc1)c1ccccc1 (stereo not shown) [BIO-1136]	50 to 10000 nM
COc1cccc(C(CC(=O)O)NC(=O)C(CC(C)C)NC(=O)Cc2ccccc2)c1 (stereo not shown) [BIO-1160]	50 to 10000 nM
CC(C)CNC(=O)C(CC(=O)O)NC(=O)C(CC(C)C)NC(=O)Cc1ccc(NC(=O)Nc2ccccc2)cc1 (stereo not shown) [BIO-1186]	50 to 10000 nM
COc1ccc(C(CC(=O)O)NC(=O)C(CC(C)C)NC(=O)Cc2ccc(NC(=O)Nc3ccccn3)cc2)cc1 (stereo not shown) [BIO-1194]	< 50 nM
CC(C)CC(NC(=O)Cc1ccc(NC(=O)Nc2ccccc2)cc1)C(=O)NC(CC(=O)O)c1ccc(F)c(F)c1 (stereo not shown) [BIO-1195]	< 50 nM
Cc1ccccc1NC(=O)Nc1ccc(CC(=O)NC(CC(C)C)C(=O)NC(CC(=O)O)c2ccccc2)cc1 (stereo not shown) [BIO-1197]	< 50 nM
COc1ccc(C(CC(=O)O)NC(=O)C(CC(C)C)NC(=O)Cc2ccc(NC(=O)Nc3ccccc3C)cc2)cc1OC (stereo not shown) [BIO-1212]	< 50 nM
Cc1ccccc1NC(=O)Nc1ccc(CC(=O)NC(CSCCCO)C(=O)NC(CC(=O)O)c2ccc3c(c2)OCO3)cc1 (stereo not shown) [BIO-1246]	< 50 nM
COC(=O)NCCCCC(NC(=O)Cc1ccc(NC(=O)Nc2ccccc2C)cc1)C(=O)NC(CC(=O)O)c1ccc2c(c1)OCO2 (stereo not shown) [BIO-1272]	< 50 nM
COC(=O)NCCCCC(NC(=O)Cc1ccc(NC(=O)Nc2ncccc2C)cc1)C(=O)NC(CC(=O)O)c1ccc(OC)c(OC)c1 (stereo not shown) [BIO-1311]	50 to 10000 nM
CC(C)CC(NC(=O)Cc1ccc(NC(=O)n2ccc3ccccc32)cc1)C(=O)NC(CC(=O)O)c1ccc2c(c1)OCO2 (stereo not shown) [BIO-1327]	50 to 10000 nM
Cc1ccccc1NC(=O)Nc1ccc(CC(=O)NC(CSCCN(C)C)C(=O)NC(CC(=O)O)c2ccc3c(c2)OCO3)cc1 (stereo not shown) [BIO-1345]	< 50 nM
COc1ccc(C(CC(=O)O)NC(=O)C(CCSC)NC(=O)Cc2ccc(NC(=O)Nc3ccccn3)cc2)cc1OC (stereo not shown) [BIO-1347]	< 50 nM
CC(C)CC(NC(=O)Cc1ccc(NC(=S)Nc2ccccc2)cc1)C(=O)NC(CC(=O)O)c1ccc2c(c1)OCO2 (stereo not shown) [BIO-1358]	50 to 10000 nM
Cc1ccccc1NC(=O)Nc1ccc(CC(=O)NC(CC(C)C)C(=O)NC(CC(=O)O)c2ccc3c(c2)CCO3)cc1 (stereo not shown) [BIO-1360]	< 50 nM
